Key:
[1] = tested on: oxygen consumption rate (OCR); assay: Seahorse XF24 metabolic flux analysis (oxygen consumption rate); type: cell-based
Experimental: Cells were cultured on XF24 plates during experiment. The mitochondrial inhibitors, oligomycin (1 μM), FCCP (0.1 μM) and Rotenone (1 μM) were added after four measurements of basal OCR as described previously.^14 • RNA Isolation, Reverse Transcription and Quantitative PCR

RXR = RXR agonist treatment, expression of lipogenic and triglyceride biosynthetic genes; type: cell-based; settings: FIG. 6A
From the text: To address how NR3B may inhibit the lipogenic and triglyceride synthesis process, the RNA-seq data for SREBP and Chrebp, two transcriptional factors directly involved in the biosynthesis of lipid was explored. […] RXR binds to both PPARg and LXR and has the potential to regulate lipid metabolism through its interaction with these two nuclear receptors. It was explored whether RXR activation alters the expression of the lipogenic and triglyceride biosynthetic genes.

| SMILES | effect on the NR3B-PA induced change of OCR ([1]; co-treatment with NR3B-PA, FIG. 6B) | expression of AGPAT3 (RXR) | expression of DGAT2 (RXR) | expression of Fasn (RXR) | basal oxygen consumption rate (OCR) ([1]; 0.1 μM, FIG. 2A) | maximal oxygen consumption rate (OCR) ([1]; 0.1 μM, FIG. 2A) |
| --- | --- | --- | --- | --- | --- | --- |
| C=C(c1ccc(C(=O)O)cc1)c1cc2c(cc1C)C(C)(C)CCC2(C)C [Bexarotene] | did not block | induction | induction | induction |  |  |
| COc1cc(/C=C(\C#N)C(=O)Nc2nnc(C(F)(F)F)s2)ccc1OCc1ccc(C(F)(F)F)cc1C(F)(F)F [XCT 790] |  |  |  |  | similar | similar |
